In ChEMBL document CHEMBL6134853, “Design, Synthesis, and Biological Evaluation of Pyrrolo[1,2-a]quinoxalin-4(5H)-one Derivatives as Potent and Orally Available Noncovalent Bruton's Tyrosine Kinase (BTK) Inhibitors” (J Med Chem, 2025):
≈ marks a conversion by molar mass, not a printed value.

Key:
[1] = biological target: Tyrosine-protein kinase BTK (Homo sapiens, UniProt Q06187); test: Inhibition of BTK (unknown origin) by HTRF analysis
U-937 [2] = test: Antiproliferative activity against human U-937 cells expressing BTK assessed as inhibition of cell proliferation incubated for 48 hrs by CCK-8 assay; type: functional, cell-based; conditions: U-937, 48 h
Ramos = test: Antiproliferative activity against human Ramos cells expressing BTK assessed as inhibition of cell proliferation incubated for 48 hrs by CCK-8 assay; type: functional, cell-based
[3] = Aqueous solubility of compound in PBS buffer at pH 7.4 by HPLC analysis; type: physicochemical
U-937 [4] = test: Antitumor activity against human U-937 cells xenografted in BALB/c mouse assessed as tumor growth inhibition at 50 mg/kg, po administered once a day for 14 days; type: functional; conditions: U-937, 336 h, time 14 day, read-out: TGI
[5] = AUC (0 to t) in male Sprague-Dawley rat at 10 mg/kg, po measured up to 24 hrs by LC-MS/MS analysis; type: ADME, organism-based; conditions: in vivo
[6] = Metabolic stability in rat liver microsome measured for 60 mins by UHPL-UV-HRMS analysis; type: ADME; conditions: microsomes, 1 h
[7] = AUC (0 to 5 hrs) in male Sprague-Dawley rat at 10 mg/kg, po measured up to 5 hrs by LC-MS/MS analysis; type: ADME, organism-based; conditions: in vivo
[8] = Tmax in male Sprague-Dawley rat at 10 mg/kg, po measured up to 5 hrs by LC-MS/MS analysis; type: ADME, organism-based; conditions: in vivo
[9] = Cmax in male Sprague-Dawley rat at 10 mg/kg, po measured up to 5 hrs by LC-MS/MS analysis; type: ADME, organism-based; conditions: in vivo
[10] = MRT (0 to 5 hrs) in male Sprague-Dawley rat at 10 mg/kg, po measured up to 5 hrs by LC-MS/MS analysis; type: ADME, organism-based; conditions: in vivo

Tyrosine-protein kinase BTK, sequence (Q06187 whole entry): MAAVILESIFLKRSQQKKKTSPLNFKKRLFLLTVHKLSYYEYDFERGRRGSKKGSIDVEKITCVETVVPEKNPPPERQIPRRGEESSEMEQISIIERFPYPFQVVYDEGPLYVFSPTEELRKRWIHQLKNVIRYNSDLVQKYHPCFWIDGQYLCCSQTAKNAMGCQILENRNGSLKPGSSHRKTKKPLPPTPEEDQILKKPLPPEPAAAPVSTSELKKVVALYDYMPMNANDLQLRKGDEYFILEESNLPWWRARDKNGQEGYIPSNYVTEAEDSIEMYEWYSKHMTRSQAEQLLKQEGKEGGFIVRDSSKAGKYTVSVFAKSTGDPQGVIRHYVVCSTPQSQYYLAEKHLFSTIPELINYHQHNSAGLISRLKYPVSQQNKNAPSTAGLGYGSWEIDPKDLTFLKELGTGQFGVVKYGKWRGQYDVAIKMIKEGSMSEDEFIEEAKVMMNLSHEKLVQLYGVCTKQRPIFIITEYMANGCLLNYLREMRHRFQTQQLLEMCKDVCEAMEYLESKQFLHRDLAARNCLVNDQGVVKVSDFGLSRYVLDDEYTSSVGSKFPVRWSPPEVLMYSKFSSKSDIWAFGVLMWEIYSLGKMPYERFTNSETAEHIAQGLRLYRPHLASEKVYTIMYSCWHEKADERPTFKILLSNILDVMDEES

| IC50 [1] [nM] | IC50 (U-937 [2]) [µM] | IC50 (Ramos) [µM] | Structure (SMILES) | other results |
| --- | --- | --- | --- | --- |
| > 1000 |  |  | Cc1c(-c2c(C#N)cc3c(=O)[nH]c4cc(C(C)(C)O)ccc4n23)cccc1-n1c(=O)[nH]c2c(F)cccc2c1=O |  |
| 7.2 | > 40 | 35.6 | Cc1c(-c2ccc3c(=O)[nH]c4cc(C(C)(C)O)ccc4n23)cccc1-n1c(=O)[nH]c2c(F)cc(F)cc2c1=O |  |
| 18.1 | 15.9 | 16.8 | Cc1c(-c2ccc3c(=O)[nH]c4cc(C(C)(C)O)ccc4n23)cccc1N1CNc2c(F)cccc2C1=O |  |
| 15 | > 40 | > 40 | CC(C)(O)c1ccc2c(c1)[nH]c(=O)c1ccc(-c3cccc(-n4c(=O)[nH]c5c(F)cccc5c4=O)c3CO)n12 | solubility [3]: 8.4 µg/mL (≈ 16 µM) |
| 327 |  |  | Cc1c(-c2cc(CO)c3c(=O)[nH]c4cc(C(C)(C)O)ccc4n23)cccc1-n1c(=O)[nH]c2c(F)cccc2c1=O | solubility [3]: 5.5 µg/mL (≈ 10.2 µM) |
| 36.8 |  |  | Cc1c(-c2ccc3c(=O)[nH]c4cc(C(C)(C)O)ccc4n23)cccc1N1CC(=O)Nc2c(F)cccc2C1=O | solubility [3]: 6.3 µg/mL (≈ 12 µM) |
| 73.7 |  |  | CC(C)(O)c1ccc2c(c1)[nH]c(=O)c1ccc(-c3cccc(-n4c(=O)[nH]c5c(F)cccc5c4=O)c3)n12 |  |
| 10.7 | 12.5 | > 40 | CC(C)(O)c1ccc2c(c1)[nH]c(=O)c1ccc(-c3cccc(-n4c(=O)[nH]c5c(F)cccc5c4=O)c3C(F)F)n12 |  |
| 22.1 | > 40 | > 40 | Cc1c(-c2ccc3c(=O)[nH]c4cc(C(C)(C)O)ccc4n23)cccc1N1C(=O)c2cccc(F)c2C1=O |  |
| 16.8 | 13.8 | 8.7 | Cc1c(-c2ccc3c(=O)[nH]c4cc(C(C)(C)O)ccc4n23)cccc1-n1c(=O)[nH]c2cc(C3CC3)ccc2c1=O |  |
| 60.7 |  |  | Cc1c(-c2ccc3c(=O)[nH]c4cc(C(F)(F)F)ccc4n23)cccc1-n1c(=O)[nH]c2c(F)cccc2c1=O |  |
| > 1000 |  |  | Cc1c(-c2ccc(C(N)=O)n2-c2ccc(C(C)(C)O)cc2)cccc1-n1c(=O)[nH]c2c(F)cccc2c1=O | solubility [3]: 30.6 µg/mL (≈ 59.7 µM) |
| 49.2 |  |  | Cc1c(NC(=O)c2cccc(F)c2N)cccc1-c1ccc2c(=O)[nH]c3cc(C(C)(C)O)ccc3n12 |  |
| 53.6 |  |  | Cc1c(-c2ccc3c(=O)[nH]c4cc(C(F)F)ccc4n23)cccc1-n1c(=O)[nH]c2c(F)cccc2c1=O |  |
| 12.1 | 6.2 | 17.9 | Cc1c(-c2ccc3c(=O)[nH]c4cc(C(C)(C)O)ccc4n23)cccc1-n1c(=O)[nH]c2cccc(F)c2c1=O |  |
| > 1000 |  |  | Cc1c(-c2ccc3n2Cc2ccc(C(C)(C)O)cc2NC3=O)cccc1-n1c(=O)[nH]c2c(F)cccc2c1=O | solubility [3]: < 0.5 µg/mL |
| 8.3 | 11.6 | 19.9 | Cc1c(-c2ccc3c(=O)[nH]c4cc(C(C)(C)O)ccc4n23)cccc1-n1c(=O)[nH]c2c(F)cccc2c1=O | inhibition in vivo at 50 mg/kg (U-937 [4]): 28.7%; AUC(0-t) at 24 h [5]: 51.9 ng·h/mL; solubility [3]: 1.1 µg/mL (≈ 2.15 µM); Stability [6]: Stable; AUC(0-t) at 5 h [7]: 39.7 ng·h/mL; Tmax [8]: 1 h; Cmax [9]: 14.2 ng/mL; MRT last at 5 h [10]: 1.02 h |
| 5.8 | > 40 | > 40 | Cc1c(-c2c(F)cc3c(=O)[nH]c4cc(C(C)(C)O)ccc4n23)cccc1-n1c(=O)[nH]c2c(F)cccc2c1=O |  |
| 64.8 |  |  | Cc1c(-c2ccc3c(=O)[nH]c(-c4ccc(C(C)(C)O)cc4)cn23)cccc1-n1c(=O)[nH]c2c(F)cccc2c1=O | solubility [3]: < 0.5 µg/mL |
| 12.4 | 13.3 | 19 | [2H]C([2H])([2H])C(O)(c1ccc2c(c1)[nH]c(=O)c1ccc(-c3cccc(-n4c(=O)[nH]c5c(F)cccc5c4=O)c3C)n12)C([2H])([2H])[2H] | AUC(0-t) at 5 h [7]: 31.1 ng·h/mL; Tmax [8]: 0.5 h; Cmax [9]: 10.4 ng/mL; MRT last at 5 h [10]: 2.05 h |
| 33.4 |  |  | Cc1c(-c2ccc3c(=O)[nH]c4cc(CN5CCOCC5)ccc4n23)cccc1-n1c(=O)[nH]c2c(F)cccc2c1=O |  |
| 17.3 | 12 | 23.7 | Cc1c(-c2ccc3c(=O)[nH]c4cc(C(C)(C)O)ccc4n23)cc(F)cc1-n1c(=O)[nH]c2c(F)cccc2c1=O |  |
| 11 | 6 | 15 | Cc1cc2c(=O)[nH]c3cc(C(C)(C)O)ccc3n2c1-c1cccc(-n2c(=O)[nH]c3c(F)cccc3c2=O)c1C | AUC(0-t) at 5 h [7]: 8.45 ng·h/mL; Tmax [8]: 1 h; Cmax [9]: 5.16 ng/mL; MRT last at 5 h [10]: 1.17 h |
| 0.42 | 9.3 | 13.6 | Cc1c(-c2c(F)cc(C(N)=O)c3[nH]c4c(c23)CC[C@H](C(C)(C)O)C4)cccc1-n1c(=O)c2cccc(F)c2n(C)c1=O [BMS-986142] |  |
| 54.2 |  |  | Cc1c(-c2ccc3c(=O)[nH]c4cc(C(C)(C)O)ccc4n23)cccc1-n1c(=O)oc2c(F)cccc2c1=O |  |

| Structure (SMILES) | IC50 [1] [nM] | IC50 (U-937 [2]) [µM] | IC50 (Ramos) [µM] | other results |
| --- | --- | --- | --- | --- |
| C=CC(=O)N1CCC[C@@H](n2nc(-c3ccc(Oc4ccccc4)cc3)c3c(N)ncnc32)C1 [IBRUTINIB] |  | 3.7 | 15.1 | inhibition in vivo at 50 mg/kg (U-937 [4]): 41.1% |
